According to the supplement of paper PMC11003180:

How the values were obtained:
Assay in all cases: drug sensitivity score (DSS) from 5-dose viability curve (DSS (area-based score, 0 = no response)); higher = more sensitive (stronger viability inhibition); extreme values may be limits of the assay
[1] = tested on: MDCK wild-type - doxycycline; conditions: doxycycline: none; 72 h
How it was run: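 Drug sensitivity scores came from Breeze pipeline dose-response fits of CellTiter-Glo luminescence, scaled per plate between vehicle and positive controls. The assay used parental MDCK cells without doxycycline at 2000 cells/well, exposed for 72 h to 528 oncology drugs at five doses (1-10,000 nM).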

[2] = tested on: MDCK wild-type + doxycycline; conditions: doxycycline: 10 ng/mL; 72 h
How it was run: (§1)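 After 72 h at 37 °C on 384-well plates pre-spotted with 528 oncology drugs at five doses (1-10,000 nM), parental and doxycycline-inducible MDCK cells were assessed; both lines had been given 10 ng/mL doxycycline in the medium before seeding at 2000 cells/well. Viability was taken from CellTiter-Glo luminescence scaled per plate to vehicle and positive controls, and drug sensitivity scores were derived from dose-response fits in the Breeze pipeline.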

[3] = tested on: MDCK p60AmotL2-inducible + doxycycline (p60AmotL2 expressing); conditions: doxycycline: 10 ng/mL; 72 h
How it was run: as §1

SMILES	drug sensitivity score [1]	drug sensitivity score [2]	drug sensitivity score [3]
COc1cc2nccc(Oc3ccc(NC(=O)C4(C(=O)Nc5ccc(F)cc5)CC4)cc3)c2cc1OC [Cabozantinib]	0	0	0
COc1cc2ncnc(Nc3ccc(F)c(Cl)c3)c2cc1OCCCN1CCOCC1 [Gefitinib]	3.2	1.5	17.9
CN1CCN(c2cc(C(=O)Nc3ccc4c(c3)-c3c(c(C(N)=O)nn3-c3ccc(F)cc3)CC4)c(Cl)cn2)CC1 [PHA 408]	0	0	0.2
C[C@@H]1CN(CC(=O)Nc2ccc3c(c2)Cc2cccc(-c4cc(=O)cc(N5CCOCC5)o4)c2S3)C[C@H](C)O1	2.2	2	2.4
CN[C@@H]1C[C@H]2O[C@@](C)([C@@H]1OC)n1c3ccccc3c3c4c(c5c6ccccc6n2c5c31)C(=O)N[C@H]4O [UCN-01]	18.1	18.5	14.5
CN1CCN(C(=O)c2ccc3cc(CCNc4ncnc5ccc(C#N)cc45)ccc3c2)CC1 [Senexin B]	0	0.1	0.6
CNC(=O)c1ccc(N2C(=S)N(c3ccc(C#N)c(C(F)(F)F)c3)C(=O)C2(C)C)cc1F [Enzalutamide]	0	0	0
CCNCCS(=O)(=O)NC[C@@]1(c2ccccc2)SC(NC(=O)C(C)(C)C)=NN1C(=O)C(C)(C)C [Litronesib]	22	25.1	26.6
CC1(C)C(C(=O)Nc2ccc(S(=O)(=O)c3ccc(NC(=O)C4C(C)(C)C4(C)C)cc3)cc2)C1(C)C [BRD7116]	0	0	0
CCN1C(=O)CNc2ncc(-c3ccc(-c4nc[nH]n4)nc3C)nc21 [CC-115]	8.9	7.8	9.4
CC1(C)OCCn2c1nc1c(N3CCOCC3)nc(-c3cnc(N)nc3)nc12 [GDC-0084]	7	10.2	14.9
CC(C)(C)c1cc(NC(=O)Nc2ccc(Oc3ccnc4[nH]c(=O)cnc34)cc2F)n(-c2ccccc2)n1	4.9	5.1	7
O=C(c1ccc(OCCN2CCCCC2)cc1)c1c(-c2ccc(O)cc2)sc2cc(O)ccc12 [Raloxifene]	5.2	5.2	6.1
COC[C@H](NC(=O)c1cnc(C)s1)C(=O)N[C@@H](COC)C(=O)N[C@@H](Cc1ccccc1)C(=O)[C@@]1(C)CO1 [Oprozomib]	17.9	17.6	17.4
C#Cc1cccc(Nc2ncnc3cc4c(cc23)OCCOCCOCCO4)c1 [Icotinib]	0	2.4	7.8
CCCc1cc(C)[nH]c(=O)c1CNC(=O)c1cc(-c2ccnc(N3CCN(C)CC3)c2)cc2c1cnn2C(C)C [GSK343]	0	0	0
COc1ccc(C[C@H](NC(=O)[C@H](C)NC(=O)CN2CCOCC2)C(=O)N[C@@H](Cc2ccccc2)C(=O)C2(C)CO2)cc1 (stereo in doubt) [ONX-0914]	8.6	10.4	12.5
CNC(=O)c1ccc(C)c(-n2c(C)cc(OCc3ccc(F)cc3F)c(Br)c2=O)c1	0	0	0

SMILES	drug sensitivity score [1]	drug sensitivity score [2]	drug sensitivity score [3]
C=CCn1c(=O)c2cnc(Nc3ccc(N4CCN(C)CC4)cc3)nc2n1-c1cccc(C(C)(C)O)n1 [AZD1775]	12.1	15.9	12.9
Nc1nc(NC2CC2)cc(-c2cccc(Cl)c2Cl)n1 [TH588]	0	0	0
CC(C)(O)CC(=O)NCCn1ccc2ncnc(Nc3ccc(Oc4cccc(C(F)(F)F)c4)c(Cl)c3)c21 [TAK-285]	1.8	3.1	6.4
CN(Cc1cnc2nc(N)nc(N)c2n1)c1ccc(C(=O)N[C@@H](CCC(=O)O)C(=O)O)cc1 [Methotrexate]	27	25.8	22.5
COc1cc(Nc2ncc(F)c(Nc3ccc4c(n3)N(COP(=O)(O)O)C(=O)C(C)(C)O4)n2)cc(OC)c1OC [Fostamatinib]	0.7	1.8	4.6
CCn1c(-c2nonc2N)nc2c(C#CC(C)(C)O)ncc(OC[C@H]3CCCNC3)c21	0	0	0.2
CCc1cc2c(cc1N1CCC(N3CCOCC3)CC1)C(C)(C)c1[nH]c3cc(C#N)ccc3c1C2=O [Alectinib]	0	0	0
O=C(Nc1cc(Oc2cc(F)c(NC(=O)C3(C(=O)Nc4ccc(F)cc4)CC3)cc2F)ccn1)C1CC1 [Altiratinib]	0	0	8
CON(C)C(=O)N1N=C(c2cc(F)ccc2F)S[C@@]1(CCCN)c1ccccc1 [Filanesib]	29.1	28.7	27.5
NCCNc1ccc(NCCN)c2c1C(=O)c1ccncc1C2=O [Pixantrone]	0	0	0
Cc1cc(Nc2cc(CN3CCOCC3)c3nc(C)c(Cc4ccc(Cl)cc4F)n3n2)n[nH]1 [Gandotinib]	6.3	5.5	8.2
FC(F)c1nc2ccccc2n1-c1nc(N2CCOCC2)nc(N2CCOCC2)n1 [ZSTK474]	4.7	7.2	10.3
Cn1cc(-c2ccc(F)c(C(F)(F)F)c2)nc1C1CCN(c2ncnc3[nH]ncc23)CC1	0	0	3
CN(C)Cc1ccc(S(=O)(=O)n2ccc(/C=C/C(=O)NO)c2)cc1 [Resminostat]	5	8.8	10.4
CCS(=O)(=O)N1CC(CC#N)(n2cc(-c3ncnc4[nH]ccc34)cn2)C1 [Baricitinib]	0	0	0
Cn1ncc(Cl)c1-c1cc(C(=O)N[C@H](CN)Cc2cccc(F)c2)sc1Cl [Afuresertib]	0	0	0
C[C@]1(O)C[C@@H](c2nc(-c3ccc4ccc(-c5ccccc5)nc4c3)c3c(N)nccn32)C1 [Linsitinib]	0	0	0
CN1CCc2c(c3ccccc3n2Cc2ccc(C(=O)NO)cc2)C1 [Tubastatin A]	0	0	0.7
